# From patent US20250084084A1, “Crystalline form of (2R)-2-(5-fluoro-2-methoxypyridin-4-yl)-1-[(2S)-7-methyl-6-(pyrimidin-2-yl)-3,4-dihydro-1H-spiro[1,8-naphthyridine-2,3-pyrrolidin]-1-yl]propan-1-one” (Pfizer Inc., priority 2020, published 2025)
# Read-outs that look alike come from different tables or passages of the source.
# Target: α-melanocyte-stimulating hormone receptor (hMC4R) (Homo sapiens (Human), UniProt P32245)
# Experiment: In vitro binding affinity assay using hMC4R (radioligand competition binding, [125I]-(Nle4, D-Phe7)-α-MSH)
# Settings: geometric mean
# Description: The binding affinity of test compounds at the α-melanocyte-stimulating hormone receptor (hMC4R) was assessed using a radioligand competition binding assay. Recombinant Chinese hamster ovaries (CHO) cells stably expressing hMC4R (PerkinElmer #ES-191-C) were used for competitive binding. hMC4R membranes were grown in Dulbecco's Modified Essential Medium and Ham's F-12 Medium (DMEM/F12), 10% heat inactivated fetal bovine serum (FBS), 0.4 mg/mL Geneticin and 2 mM L-glutamine. Cell membranes were bulked and frozen until the assay was performed.
# Compounds were solubilized in 100% dimethyl sulfoxide (DMSO) to a concentration of 30 mM. A 10-point intermediate dilution series using half log dilutions was created in 100% DMSO with a top concentration of 0.03 mM. The serially diluted compounds were spotted as 1 μL/well, in 96-well Costar 3363 plates. The final compound range in the assay was 300 nM to 0.01 nM with a final DMSO concentration of 1%. Control wells, containing 1 μL of 2 mM ([…]) alpha-melanocyte stimulating hormone (α-MSH-Tocris #2584) was added to the non-specific binding wells and 1 μL 100% DMSO for the total binding control wells. […] The exact concentration of radioligand used for each experiment was determined by liquid scintillation counting and adjusted if necessary.
# Frozen hMC4R cell membranes were thawed and Dounce homogenized. Homogenates were resuspended in assay buffer to a concentration of 2 μg per well. […] The plates were incubated for 2 hours at room temperature. Assay samples were then rapidly filtered through Unifilter-96 GF/B PEI coated filter plates using a filter plate harvester (PerkinElmer) and rinsed with ice-cold wash buffer [25 mM (4-(2-hydroxyethyl)-1-piperazineethanesulfonic acid (HEPES), 1 mM MgCl2, 2.5 mM CaCl2, and 500 mM NaCl]. Filter plates were dried overnight at room temperature. Plates were then bottom-sealed prior to the addition of 50 μL/well Ultima Gold XR scintillation fluid (PerkinElmer 6013111). Plates were then top-sealed, incubated for 60 minutes at room temperature and then the amount of radioactivity present was determined by liquid scintillation counting on a Microbeta Trilux (PerkinElmer #2450-0060).
# The raw data (expressed as counts per minute) were analyzed using ActivityBase (IDBS Data Management Software). […] Equilibrium dissociation constant for inhibitor of ligand and receptor interaction (Ki) values were then calculated from the IC50 values using the Cheng-Prusoff equation: Ki=IC50/(1+([L]/Kd)), where [L] is the concentration of the radioligand used in the experiment and Kd is the affinity of the radioligand (determined in separate saturation experiments).
# [1] = read-out: Ki (nM) geometric mean
# α-melanocyte-stimulating hormone receptor (hMC4R), sequence (P32245 whole entry): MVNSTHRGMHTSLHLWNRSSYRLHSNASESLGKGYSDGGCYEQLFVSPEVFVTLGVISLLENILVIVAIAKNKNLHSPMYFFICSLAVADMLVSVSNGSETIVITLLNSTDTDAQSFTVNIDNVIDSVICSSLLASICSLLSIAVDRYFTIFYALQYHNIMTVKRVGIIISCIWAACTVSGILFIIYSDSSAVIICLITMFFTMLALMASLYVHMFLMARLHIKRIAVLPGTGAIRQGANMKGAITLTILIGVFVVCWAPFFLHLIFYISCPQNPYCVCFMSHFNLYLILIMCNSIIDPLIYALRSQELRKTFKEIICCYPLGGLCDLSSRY
SMILES,Ki (read-out: Ki (nM) geometric) [nM],Ki [1] [nM]
"COc1cc([C@@H](C)C(=O)N2CC[C@@]3(CCc4cc(-c5cn(C(F)F)c(C)n5)c(C)nc4N3)C2)c(F)cn1 [Example 138, (2R)-1-{(2S)-6-[1-(difluoromethyl)-2-methyl-1H-imidazol-4-yl]-7-methyl-3,4-dihydro-1H-spiro[1,8-naphthyridine-2,3′-pyrrolidin]-1′-yl}-2-(5-fluoro-2-methoxypyridin-4-yl)propan-1-one]",0.9,
"COc1cc([C@@H](C)C(=O)N2CC[C@@]3(CCc4cc(-c5ncc(C(F)F)cn5)c(C)nc4N3)C2)c(F)cn1 [Example 21, (2R)-1-{(2S)-6-[5-(difluoromethyl)pyrimidin-2-yl]-7-methyl-3,4-dihydro-1H-spiro[1,8-naphthyridine-2,3′-pyrrolidin]-1′-yl}-2-(5-fluoro-2-methoxypyridin-4-yl)propan-1-one]",,2.2
"COc1cc([C@@H](C)C(=O)N2CC[C@@]3(CCc4cc(-c5cc(C(F)(F)F)ncn5)c(C)nc4N3)C2)c(F)cn1 [Example 72, (2R)-2-(5-fluoro-2-methoxypyridin-4-yl)-1-{(2S)-7-methyl-6-[6-(trifluoromethyl)pyrimidin-4-yl]-3,4-dihydro-1H-spiro[1,8-naphthyridine-2,3′-pyrrolidin]-1′-yl}propan-1-one]",,3.3
"COc1cc([C@@H](C)C(=O)N2CC[C@@]3(CCc4cc(-c5cc(C)nc(C(C)C)n5)c(C)nc4N3)C2)c(F)cn1 [Example 183, (2R)-2-(5-fluoro-2-methoxypyridin-4-yl)-1-{(2S)-7-methyl-6-[6-methyl-2-(propan-2-yl)pyrimidin-4-yl]-3,4-dihydro-1H-spiro[1,8-naphthyridine-2,3′-pyrrolidin]-1′-yl}propan-1-one]",4,
"COc1cc([C@@H](C)C(=O)N2CC[C@@]3(CCc4cc(-c5ccccn5)c(C)nc4N3)C2)c(F)cn1 [Example 140, (2R)-2-(5-fluoro-2-methoxypyridin-4-yl)-1-[(2S)-7-methyl-6-(pyridin-2-yl)-3,4-dihydro-1H-spiro[1,8-naphthyridine-2,3′-pyrrolidin]-1′-yl]propan-1-one]",6.3,
"COc1cc([C@@H](C)C(=O)N2CC[C@@]3(CCc4cc(-c5nc(C(F)F)n(C)n5)c(C)nc4N3)C2)c(F)cn1 [Example 122, (2R)-1-{(2S)-6-[5-(difluoromethyl)-1-methyl-1H-1,2,4-triazol-3-yl]-7-methyl-3,4-dihydro-1H-spiro[1,8-naphthyridine-2,3′-pyrrolidin]-1′-yl}-2-(5-fluoro-2-methoxypyridin-4-yl)propan-1-one]",0.49,
"COc1cc([C@@H](C)C(=O)N2CC[C@@]3(CCc4cc(-c5nc(N6CCOCC6)n(C)n5)c(C)nc4N3)C2)c(F)cn1 [Example 187, (2R)-2-(5-fluoro-2-methoxypyridin-4-yl)-1-{(2S)-7-methyl-6-[1-methyl-5-(morpholin-4-yl)-1H-1,2,4-triazol-3-yl]-3,4-dihydro-1H-spiro[1,8-naphthyridine-2,3′-pyrrolidin]-1′-yl}propan-1-one]",5.5,
"COc1cc([C@@H](C)C(=O)N2CC[C@@]3(CCc4cc(-c5cnc(C6CC6)cn5)c(C)nc4N3)C2)c(F)cn1 [Example 70, (2R)-1-[(2S)-6-(5-cyclopropylpyrazin-2-yl)-7-methyl-3,4-dihydro-1H-spiro[1,8-naphthyridine-2,3′-pyrrolidin]-1′-yl]-2-(5-fluoro-2-methoxypyridin-4-yl)propan-1-one]",,40
"COc1cc([C@@H](C)C(=O)N2CC[C@@]3(CCc4cc(-c5nc6n(n5)CCC6(F)F)c(C)nc4N3)C2)c(F)cn1 [Example 147, (2R)-1-[(2S)-6-(7,7-difluoro-6,7-dihydro-5H-pyrrolo[12-b][1,2,4]triazol-2-yl)-7-methyl-3,4-dihydro-1H-spiro[1,8-naphthyridine-2,3′-pyrrolidin]-1′-yl]-2-(5-fluoro-2-methoxypyridin-4-yl)propan-1-one]",0.62,
"COc1ncc(F)c([C@@H](C)C(=O)N2CC[C@@]3(CCc4cc(-c5nnn(C)n5)c(C)nc4N3)C2)n1 (single isomer, unassigned) [Example 134]",220,
"Cc1nc2c(cc1-c1cnn(C)c1)CC[C@@]1(CCN(C(=O)Cc3ccc(F)cc3)C1)N2 (stereo in doubt) [Example 89, 2-(4-fluorophenyl)-1-[7-methyl-6-(1-methyl-1H-pyrazol-4-yl)-3,4-dihydro-1H-spiro[1,8-naphthyridine-2,3′-pyrrolidin]-1′-yl]ethan-1-one]",,1.7
"COc1cc([C@@H](C)C(=O)N2CC[C@@]3(CCc4cc(-c5ccc6sc(C)nc6c5)c(C)nc4N3)C2)c(F)cn1 [Example 165, (2R)-2-(5-fluoro-2-methoxypyridin-4-yl)-1-[(2S)-7-methyl-6-(2-methyl-1,3-benzothiazol-5-yl)-3,4-dihydro-1H-spiro[1,8-naphthyridine-2,3′-pyrrolidin]-1′-yl]propan-1-one]",81,
"COc1cc([C@@H](C)C(=O)N2CC[C@@]3(CCc4cc(-c5nccnc5C)c(C)nc4N3)C2)c(F)cn1 [Example 164, (2R)-2-(5-fluoro-2-methoxypyridin-4-yl)-1-[(2S)-7-methyl-6-(3-methylpyrazin-2-yl)-3,4-dihydro-1H-spiro[1,8-naphthyridine-2,3′-pyrrolidin]-1′-yl]propan-1-one]",18,
"COc1cc([C@@H](C)C(=O)N2CC[C@@]3(CCc4cc(-c5ncc(C(F)(F)F)cc5F)c(C)nc4N3)C2)c(F)cn1 [Example 68, (2R)-2-(5-fluoro-2-methoxypyridin-4-yl)-1-{(2S)-6-[3-fluoro-5-(trifluoromethyl)pyridin-2-yl]-7-methyl-3,4-dihydro-1H-spiro[1,8-naphthyridine-2,3′-pyrrolidin]-1′-yl}propan-1-one]",,35
"COc1cc([C@@H](C)C(=O)N2CC[C@@]3(CCc4cc(-c5nc(C)n(C(F)F)n5)c(C)nc4N3)C2)c(F)cn1 [Example 188, (2R)-1-{(2S)-6-[1-(difluoromethyl)-5-methyl-1H-1,2,4-triazol-3-yl]-7-methyl-3,4-dihydro-1H-spiro[1,8-naphthyridine-2,3′-pyrrolidin]-1′-yl}-2-(5-fluoro-2-methoxypyridin-4-yl)propan-1-one]",0.41,
"COc1cc([C@@H](C)C(=O)N2CC[C@@]3(CCc4cc(-c5ncccn5)c(C)nc4N3)C2)c(C)cn1 (single isomer, unassigned) [Example 136]",1.4,
"COc1cc([C@@H](C)C(=O)N2CC[C@]3(CCc4cc(-c5ncccn5)c(C)nc4N3)C2)c(F)cn1 [Example 29, (2R)-2-(5-fluoro-2-methoxypyridin-4-yl)-1-[(2R)-7-methyl-6-(pyrimidin-2-yl)-3,4-dihydro-1H-spiro[1,8-naphthyridine-2,3′-pyrrolidin]-1′-yl]propan-1-one]",,11
"COc1cc([C@@H](C)C(=O)N2CC[C@@]3(CCc4cc(-c5nc(C(F)F)n(C)n5)c(C)nc4N3)C2)c(Cl)cn1 [Example 120, (2R)-2-(5-chloro-2-methoxypyridin-4-yl)-1-{(2S)-6-[5-(difluoromethyl)-1-methyl-1H-1,2,4-triazol-3-yl]-7-methyl-3,4-dihydro-1H-spiro[1,8-naphthyridine-2,3′-pyrrolidin]-1′-yl}propan-1-one]",0.4,
"COc1ccc([C@@H](C)C(=O)N2CC[C@@]3(CCc4cc(-c5ncccn5)c(C)nc4N3)C2)cc1F (single isomer, unassigned) [Example 42]",,1.9
"Cc1nc(OC(F)F)cc([C@@H](C)C(=O)N2CC[C@@]3(CCc4cc(-c5ncccn5)c(C)nc4N3)C2)n1 (single isomer, unassigned) [Example 44]",,54
"COc1cc([C@@H](C)C(=O)N2CC[C@@]3(CCc4ccc(C)nc4N3)C2)c(F)cn1 (single isomer, unassigned) [Example 98]",,2.8
"Cc1nc2c(cc1-c1nnn(C)n1)CC[C@@]1(CCN(C(=O)C(C)c3ccc(C(F)(F)F)cc3)C1)N2 (single isomer, unassigned) [Example 109]",0.73,
"COc1cc([C@@H](C)C(=O)N2CC[C@@]3(CCc4cc(-c5nnn(C)n5)c(C)nc4N3)C2)nc(C(F)F)n1 (single isomer, unassigned) [Example 127]",0.97,
"COc1cc([C@H](C)C(=O)N2CC[C@]3(CCc4cc(-c5ncccn5)c(C)nc4N3)C2)c(F)cn1 [Example 30, (2S)-2-(5-fluoro-2-methoxypyridin-4-yl)-1-[(2R)-7-methyl-6-(pyrimidin-2-yl)-3,4-dihydro-1H-spiro[1,8-naphthyridine-2,3′-pyrrolidin]-1′-yl]propan-1-one]",,> 250
